Data published in patent US10940188B2, “Compounds and methods for treatment and prevention of Flavivirus infection” (priority 2016, dated 2021).
Where two headings read alike, the source gives them in different places.

Legend:
[1] = system: ZIKV MR766 NS1; assay: microbe, parasite or virus in culture; type: cell-based, Zika virus; details: Zika virus, HEK293, 48 h, read-out: NS1-IC50
Protocol: A one-step NS1 TR-FRET (Time-resolved fluorescence resonance energy transfer) assay for a screen of anti-ZIKV compounds was carried out. Human embryonic kidney cell line HEK293 cells were seeded into 384-well plates and infected with ZIKV MR766 at a MOI of 0.5 for 2 days. The FRET assay was performed with two clones of anti-NS1 antibody (ab) differentially labelled with donor and acceptor fluorophores.

[2] = system: ZIKV-induced caspase 3/7 activity in hNPCs; assay: Caspase 3/7 activity assay, ZIKV-infected hNPCs; type: cell-based; details: ZIKV-infected hNPCs; for IC50: read-out: Caspase 3 (IC50, uM) NPCs; for Emax: read-out: Caspase 3 (efficacy, %) NPCs
Protocol: (§1) Caspase-Glo 3/7 assay kit (catalog number G8092; Promega, Madison, Wis.) was used to detect caspase 3/7 activity. Reagents were reconstituted as described in the protocol from the manufacturer. Polystyrene plates (384-well and 1536-well; regular tissue culture treated and PDL coated) were purchased from Greiner Bio-One (Monroe, N.C.). Cells were seeded in 384- and 1536-well assay plates and cultured at 37° C. with 5% CO2 for 16 hours. ZIKV solution was added to cells, followed by incubation at 37° C. with 5% CO2 for 6 hours. Caspase-Glo 3/7 was added to each well, unless otherwise specified, and incubated at room temperature for 30 minutes. The luminescence intensity of the assay plates was measured using a ViewLux plate reader (PerkinElmer). Data were normalized by using the cell-containing wells without ZIKV as a negative control (0% induction of caspase 3/7 activity) and wells containing ZIKV infected cells that induced caspase 3/7 activity were used as a positive control (100% induction of caspase 3/7 activity).
Human NPCs were seeded onto PDL coated 1536-well assay plates at 250 cells per 3 μl/well and incubated at 37° C. in 5% CO2 for 16 hours. Test compounds dissolved in DMSO were transferred to assay plates at a volume of 23 nl/well by an automated pintool workstation (Wako Automation, San Diego, Calif.). Compounds were incubated with cells for 30 minutes at 37° C. in 5% CO2, immediately followed by the addition of 2 μl/well of ZIKV. Incubation time of compound-treated cells with ZIKV varied based on assay format. Experiments measuring virus-induced caspase 3/7 activity required a 6 hour incubation of ZIKV in the presence compounds at 37° C. in 5% CO2. Following this incubation, 3.5 μl/well of caspase 3/7 reagent mixture was added to assay plates. The plates were incubated for 30 minutes at room temperature, and the resultant luminescence signal was measured using a ViewLux plate reader (Perkin Elmer). Experiments measuring virus-induced cell death required a 72-hour incubation of ZIKV in the presence of compounds at 37° C. in 5% CO2. Following this incubation, 3.5 μl/well of ATP content detection reagent was added to assay plates, incubated for 30 minutes at the room temperature, and the resultant luminescence signal was measured in a ViewLux plate reader.
(§2) Caspase-Glo 3/7 assay kit (Promega) was used to detect caspase 3/7 activity. Reagents were reconstituted as described in the protocol from the manufacturer. Cells were seeded in 384- and 1536-well assay plates and cultured at 37° C. with 5% CO2 for 16 hours. ZIKV solution was added to cells, followed by incubation at 37° C. with 5% CO2 for 6 hours. Caspase-Glo 3/7 was added to each well at a 1:1 ratio, unless otherwise specified, and incubated at room temperature for 30 minutes. The luminescence intensity of the assay plates was measured using a ViewLux plate reader (PerkinElmer). Data was normalized by using the cell-containing wells without ZIKV as a negative (0% induction of caspase 3/7 activity) control and wells containing ZIKV infected cells that induced caspase 3/7 activity were used as a positive control (100% induction of caspase 3/7 activity).
Human NPCs were seeded onto PDL coated 1536-well assay plates at 250 cells per 3 μl/well and incubated at 37° C. in 5% CO2 for 16 hours. Test compounds dissolved in DMSO were transferred to assay plates at a volume of 23 nl/well by an automated pintool workstation (Wako Automation, San Diego, Calif.). Compounds were incubated with cells for 30 minutes at 37° C. in 5% CO2, immediately followed by the addition of 2 μl/well of ZIKV. Incubation time of compound-treated cells with ZIKV varied based on assay format. Experiments measuring virus induced caspase 3/7 activity required a 6 hour incubation of ZIKV in the presence compounds at 37° C. in 5% CO2. […]

[3] = system: ZIKV-induced cell death in human astrocytes; assay: ATP cell viability assay for ZIKV-induced cell death, human astrocytes; type: cell-based; details: ZIKV-infected human astrocytes; for IC50: read-out: Cell viability (IC50, uM) Astrocyte
[4] = system: ZIKV-induced caspase 3/7 activity in human astrocytes; assay: Caspase 3/7 activity assay, ZIKV-infected human astrocytes; type: cell-based; details: ZIKV-infected human astrocytes; for IC50: read-out: Caspase 3 (IC50, uM) Astrocyte; for Emax: read-out: Caspase 3 (efficacy, %) Astrocyte
Protocol: as §1, with “activity). […]” for “activity).”
as §2, with “activity). […]” for “activity).”

[5] = system: ZIKV-induced cell death in SNB-19 cells; assay: ATP cell viability assay for ZIKV-induced cell death, SNB-19 cells; type: cell-based, human; details: ZIKV-infected SNB-19 cells; for IC50: read-out: Cell viability (IC50, uM) SNB-19
Protocol: (§3) The reagent was reconstituted and prepared as described by the manufacturer. In order to measure the cell death caused by ZIKV infection, cells were cultured for 16 hours at 37° C. with 5% CO2 in assay plates, followed by the addition of ZIKV solution and incubation at 37° C. with 5% CO2 for 72 hours. ATPlite, the ATP monitoring reagent, was then added to the assay plates and they were incubated for 15 minutes. The resulting luminescence was measured using the ViewLux plate reader (Perkin Elmer). Data were normalized using the wells without cells as a control for 100% cell killing, and cell-containing wells without ZIKV infection were used as full cell viability (0% cell killing). […]
as §3, with “The ATPlite luminescence assay system assay kit (PerkinElmer) was used to determine cell viability. The reagent” for “The reagent”, “by the manufacture. In order” for “by the manufacturer. In order”, “followed by addition of” for “followed by the addition of”, “plates and incubated for” for “plates and they were incubated for”, “Elmer). Data was normalized using” for “Elmer). Data were normalized using”

[6] = system: ZIKV-induced caspase 3/7 activity in SNB-19 cells; assay: Caspase 3/7 activity assay, ZIKV-infected SNB-19 cells; type: cell-based; details: ZIKV-infected SNB-19 cells; for IC50: read-out: Caspase 3 (IC50, uM) SNB-19; for Emax: read-out: Caspase 3 (efficacy, %) SNB-19
Protocol: as §1, with “activity). […]” for “activity).”
as §2, with “activity). […]” for “activity).”

IC50 ([2]; Homo sapiens) [µM]	IC50 ([4]; Astrocyte) [µM]	IC50 ([6]; Homo sapiens) [µM]	Structure (SMILES)	IC50 [1] [µM]	Caspase 3 (efficacy, %) NPCs [2] [%]	IC50 [2] [µM]	Cell viability (efficacy, %) Astrocyte [3] [%]	Caspase 3 (efficacy, %) Astrocyte [4] [%]	IC50 [4] [µM]	Cell viability (efficacy, %) SNB-19 [5] [%]	IC50 [5] [µM]	Caspase 3 (efficacy, %) SNB-19 [6] [%]	IC50 [6] [µM]	IC50 [3] [µM]	Emax ([2]; Homo sapiens) [%]	Emax ([4]; Astrocyte) [%]	Emax ([6]; Homo sapiens) [%]	IC50 ([5]; Homo sapiens) [µM]	IC50 ([3]; Astrocyte) [µM]
1.38	4.35	3.27	Cc1oncc1C(=O)Nc1ccc(C(F)(F)F)cc1 [Leflunomide]	–	–	–	0.0	–	–	0.0	–	–	–	–	97.8	98.1	106	–	–
6.9	8.2	6.9	O=C(Nc1ccc(OC(F)(F)F)cc1)c1sccc1NCc1ccnc2ccccc12 [OSI-930]	–	–	–	0.0	–	–	71.2	–	–	–	–	96.9	91.5	114	3.08	–
1.3	2.06	1.95	O=C(Nc1ncc([N+](=O)[O-])s1)c1cccs1 [Tenonitrozole]	–	–	–	0.0	–	–	0.0	–	–	–	–	81.5	88.8	81.7	–	–
19.5	17.3	17.3	COc1ccc(/C=C/C(=O)Nc2ccccc2C(=O)O)cc1OC [Tranilast]	–	–	–	0.0	–	–	0.0	–	–	–	–	107	71.6	70.3	–	–
4.61	6.9	8.2	Clc1ccccc1-c1nc(-c2ccncc2)no1 [Pifexole]	–	–	–	0.0	–	–	0.0	–	–	–	–	92.2	86.3	83.6	–	–

The remaining lines, values behind:

Structure (SMILES)	IC50 ([2]; Homo sapiens) [µM]	IC50 ([4]; Astrocyte) [µM]	IC50 ([6]; Homo sapiens) [µM]	IC50 [1] [µM]	Caspase 3 (efficacy, %) NPCs [2] [%]	IC50 [2] [µM]	Cell viability (efficacy, %) Astrocyte [3] [%]	Caspase 3 (efficacy, %) Astrocyte [4] [%]	IC50 [4] [µM]	Cell viability (efficacy, %) SNB-19 [5] [%]	IC50 [5] [µM]	Caspase 3 (efficacy, %) SNB-19 [6] [%]	IC50 [6] [µM]	IC50 [3] [µM]	Emax ([2]; Homo sapiens) [%]	Emax ([4]; Astrocyte) [%]	Emax ([6]; Homo sapiens) [%]	IC50 ([5]; Homo sapiens) [µM]	IC50 ([3]; Astrocyte) [µM]
C=CC[C@@H]1/C=C(\C)C[C@H](C)C[C@H](OC)[C@H]2O[C@@](O)(C(=O)C(=O)N3CCCC[C@H]3C(=O)O[C@H](/C(C)=C/[C@@H]3CC[C@@H](O)[C@H](OC)C3)[C@H](C)[C@@H](O)CC1=O)[C@H](C)C[C@@H]2OC [FK-506]	–	–	–	0.104	–	–	–	–	–	–	–	–	–	–	–	–	–	–	–
N#C/C(=C\c1ccc(O)c(O)c1)C(=O)Nc1ccccc1 [Tyrphostin AG 494]	–	–	–	–	72.8	17.3	0.0	72.5	18.4	45.6	30.8	55.6	21.8	–	–	–	–	–	–
CC(C)(C)COc1ccc(-n2cc(C(=O)O)cn2)cc1C#N [Piraxostat]	–	–	–	–	67.1	15.8	34.7	70.5	8.91	60.3	5.01	63.5	21.1	63.1	–	–	–	–	–
COc1ccc(-c2coc3cc(O)ccc3c2=O)cc1 [Formononetin]	10.9	14.6	12.3	–	–	–	0.0	–	–	0.0	–	–	–	–	88.3	94.7	104	–	–
CCC[S+]([O-])c1ccc2[nH]c(NC(=O)OC)nc2c1 (stereo not drawn) [Albendazole oxide]	12.3	15.5	21.8	–	–	–	0.0	–	–	0.0	–	–	–	–	88.1	78.8	86	–	–
COc1ccc([C@@H]2CC(=O)c3c(O)cc(O)cc3O2)cc1O [Hesperetin]	10.9	16.4	17.3	–	–	–	0.0	–	–	0.0	–	–	–	–	79.6	72.7	86	–	–
CCC(CC)CC1(C(=O)Nc2ccccc2SC(=O)C(C)C)CCCCC1 [Dalcetrapib]	35.5	–	–	–	–	–	45.7	–	–	110	–	–	–	–	50.2	0	50.2	35.5	47.3
